The source of these data is patent US9902734B2, “Nicotinic acetylcholine receptor agonists” (priority 2010, dated 2018).

The structures appear in SMILES notation. Entries after “also recorded” stand apart in the source; their conditions may differ.

The subject of assay [1] is nicotinic acetylcholine receptors (cell lines expressing various combinations of nicotinic-receptor subunits). As to the kind of experiment: functional fluorescence bioassay of HPLC fractions across several cell lines. The class given is cell-based. The settings on record: for nicotinic receptor agonist activity (time-bioactivity profile of HPLC fractions): several cell lines. How it is done:
(§1) The structures of compounds 1-6 are set forth below.
(§2) Biological Investigation of Phantasmidine. Semi-preparative HPLC-bioassay analysis was conducted as described previously^9 on the alkaloid fraction of E. anthonyi in several cell lines, including TE-671 (neuromuscular),^16 SH-SY5Y (ganglionic α3*, α3β4*, α7),^15 and several transfected cell lines expressing nicotinic receptor subunit combinations of α2-4 and β2/β4.^12,13,17
(§3) Collected analytical scale fractions in 96-well plates were reconstituted in situ with 300 μL Hanks balanced salt solution containing 20 mM HEPES at pH 7.4 (HBSS/HEPES) and were used as such. Cell lines expressing various nicotinic receptors were maintained in culture and used for functional fluorescence assays including SH-SY5Y, IMR-32, TE-671, KXα3β4R2, KXα4β4R1, and KXα4β2R2, as previously described.^9,11 Briefly, cells were plated onto 96-well poly-D-lysine-coated plates in Dulbecco's modified minimum essential media supplemented with 10% fetal bovine serum (supplemented with Geneticin G418 for KXα3β4R2, KXα4β4R1, and KXα4β2R2 cells) and grown to near confluence. The media was aspirated and the cells were gently washed with 2×100 μL HBSS/HEPES (pH 7.4). A solution of Molecular Devices no-wash membrane potential dye (30 μL) was added and the cells incubated in the dark at room temperature for 1 h. Plates were read on a FLEXSTATION™ (Molecular Devices) robotic plate reader at an excitation wavelength of 530 nm, emission wavelength of 565 nm, with a cutoff filter at 550 nm. Basal fluorescence was measured for 15 s and 30 μL of reconstituted E. anthonyi fraction in HBSS/HEPES were added. Response was measured for 105 s and 30 μL of 300 μM nicotine were added. The nicotine response was measured for 40 s and 30 μL of 160 mM KCl were added. Maximal fluorescence was measured for 40 s. Average basal fluorescence was subtracted and response was taken as the peak fluorescence for each addition divided by the maximal KCl fluorescence. Responses for each fraction were plotted as a function of time and compared to the UV and total ion chromatograms to identify active components. Preparative-scale isolation was then conducted and structures of active components were elucidated.

Assay [2] concerns the target T1, KXα3β4R2 cells (HEK cells expressing rat α3 and β4 nicotinic receptor subunits) (Rattus norvegicus, UniProt P04757+P12392).
T1 construct: expressed in transfected cells; host or cells: HEK cells (KXα3β4R2)
Format: cell-based.

Assay [3] deals with nicotinic receptors. The settings on record: cited from earlier work.
Assay [4] concerns the target T2, KXα4β4R1 cells (β4 nicotinic subunits) (Rattus norvegicus, UniProt P09483+P12392).
T2 construct: expressed in transfected cells; host or cells: KXα4β4R1 (G418-selected transfected line)
As to the kind of experiment: functional fluorescence (membrane potential dye) bioassay of HPLC fractions. Format: cell-based. How it is done:
as §1, §2, §3

Assay [5] has as its target T3, KXα4β2R2 cells (β2-containing) (Rattus norvegicus, UniProt P09483+P12390).
T3 construct: expressed in transfected cells; host or cells: KXα4β2R2 (G418-selected transfected line)
Described as above. The class given is cell-based. How it is done:
as §1, §2, §3

The test system of assay [6] is SH-SY5Y cells (ganglionic α3*, α3β4*, α7). The assay is described as above. Format: cell-based. The procedure:
as §1, §2, §3

Assay [7] deals with T4, TE-671 cells (neuromuscular) (Homo sapiens, UniProt P02708+P07510+Q07001).
T4 construct: endogenous in cells; host or cells: TE-671
The assay is described as above. Format: cell-based. How it is done: as §1, §2, §3

Assay [8] relates to IMR-32 cells (β4 nicotinic subunits). The description is as above. Format: cell-based. The procedure: as §1, §2, §3
In assay [9] the target is T5, K-177 cells (β2-containing) (Homo sapiens, UniProt P17787+P43681).
T5 construct: expressed in transfected cells; host or cells: K-177
As to the kind of experiment: functional fluorescence bioassay of HPLC fractions. Format: cell-based. The procedure: as §1, §2

T1 sequence (P12392 21-495): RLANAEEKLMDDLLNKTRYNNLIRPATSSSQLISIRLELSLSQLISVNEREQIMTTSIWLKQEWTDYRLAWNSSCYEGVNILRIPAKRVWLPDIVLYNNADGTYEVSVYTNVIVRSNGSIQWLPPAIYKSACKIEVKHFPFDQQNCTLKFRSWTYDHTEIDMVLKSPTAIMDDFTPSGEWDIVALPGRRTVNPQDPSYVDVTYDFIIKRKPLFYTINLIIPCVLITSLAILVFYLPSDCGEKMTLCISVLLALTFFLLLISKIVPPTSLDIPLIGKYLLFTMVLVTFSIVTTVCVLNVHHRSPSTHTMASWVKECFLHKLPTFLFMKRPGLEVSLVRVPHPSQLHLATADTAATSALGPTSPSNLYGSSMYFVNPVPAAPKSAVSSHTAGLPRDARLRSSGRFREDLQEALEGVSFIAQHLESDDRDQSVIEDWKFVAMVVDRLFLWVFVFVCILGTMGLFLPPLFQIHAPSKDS
T1 sequence (P04757 26-499): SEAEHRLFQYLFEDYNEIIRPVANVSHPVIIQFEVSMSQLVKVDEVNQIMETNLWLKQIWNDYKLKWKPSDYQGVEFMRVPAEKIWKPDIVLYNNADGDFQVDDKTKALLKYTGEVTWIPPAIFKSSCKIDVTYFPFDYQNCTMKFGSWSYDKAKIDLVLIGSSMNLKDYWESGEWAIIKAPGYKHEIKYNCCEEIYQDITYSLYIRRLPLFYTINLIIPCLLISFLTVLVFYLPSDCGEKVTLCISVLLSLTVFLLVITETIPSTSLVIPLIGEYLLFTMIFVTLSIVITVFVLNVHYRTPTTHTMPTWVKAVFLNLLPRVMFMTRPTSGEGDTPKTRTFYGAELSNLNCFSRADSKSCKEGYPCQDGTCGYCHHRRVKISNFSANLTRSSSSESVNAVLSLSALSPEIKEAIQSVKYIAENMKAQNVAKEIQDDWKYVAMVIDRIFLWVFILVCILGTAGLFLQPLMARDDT
T3 sequence (P12390 25-500): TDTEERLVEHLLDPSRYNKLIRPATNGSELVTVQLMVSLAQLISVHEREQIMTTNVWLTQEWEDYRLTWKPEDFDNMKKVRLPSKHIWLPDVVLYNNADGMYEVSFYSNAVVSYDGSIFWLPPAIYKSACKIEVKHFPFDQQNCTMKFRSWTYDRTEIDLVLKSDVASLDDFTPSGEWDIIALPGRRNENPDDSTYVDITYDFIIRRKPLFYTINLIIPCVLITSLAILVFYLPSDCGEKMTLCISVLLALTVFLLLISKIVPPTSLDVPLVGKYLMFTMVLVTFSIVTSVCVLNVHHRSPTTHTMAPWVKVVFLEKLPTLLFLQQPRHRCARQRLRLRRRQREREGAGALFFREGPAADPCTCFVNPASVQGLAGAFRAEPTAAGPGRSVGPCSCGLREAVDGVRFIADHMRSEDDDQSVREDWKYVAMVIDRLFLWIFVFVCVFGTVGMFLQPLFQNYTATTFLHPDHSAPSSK
T3 sequence (P09483 31-630): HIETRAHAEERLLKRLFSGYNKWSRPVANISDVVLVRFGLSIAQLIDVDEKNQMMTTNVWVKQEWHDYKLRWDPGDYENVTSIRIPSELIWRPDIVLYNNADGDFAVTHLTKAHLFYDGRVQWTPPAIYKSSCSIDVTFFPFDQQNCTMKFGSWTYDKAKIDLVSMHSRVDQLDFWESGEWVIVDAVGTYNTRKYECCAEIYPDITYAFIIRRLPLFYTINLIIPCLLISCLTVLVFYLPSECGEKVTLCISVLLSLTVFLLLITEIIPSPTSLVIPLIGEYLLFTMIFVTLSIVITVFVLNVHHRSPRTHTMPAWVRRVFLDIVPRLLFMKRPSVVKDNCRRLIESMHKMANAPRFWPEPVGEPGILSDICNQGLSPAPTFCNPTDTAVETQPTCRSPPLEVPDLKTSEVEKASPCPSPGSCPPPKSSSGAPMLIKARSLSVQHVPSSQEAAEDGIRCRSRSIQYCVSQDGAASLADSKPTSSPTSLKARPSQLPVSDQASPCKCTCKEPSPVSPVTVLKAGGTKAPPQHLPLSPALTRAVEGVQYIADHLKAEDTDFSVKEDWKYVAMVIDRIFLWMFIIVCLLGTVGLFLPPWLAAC
T4 sequence (P02708 21-457): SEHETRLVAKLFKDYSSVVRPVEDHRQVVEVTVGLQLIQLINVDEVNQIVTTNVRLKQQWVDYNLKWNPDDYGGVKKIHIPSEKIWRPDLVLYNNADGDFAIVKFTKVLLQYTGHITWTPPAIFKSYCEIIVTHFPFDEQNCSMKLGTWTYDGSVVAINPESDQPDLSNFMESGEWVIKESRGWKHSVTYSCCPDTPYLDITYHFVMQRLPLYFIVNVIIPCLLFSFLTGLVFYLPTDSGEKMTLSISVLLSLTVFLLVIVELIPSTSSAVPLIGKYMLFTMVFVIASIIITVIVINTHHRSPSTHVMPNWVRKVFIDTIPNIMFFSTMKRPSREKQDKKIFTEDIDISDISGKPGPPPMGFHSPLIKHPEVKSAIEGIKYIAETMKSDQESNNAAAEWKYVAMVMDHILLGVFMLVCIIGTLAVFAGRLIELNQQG
T4 sequence (P11230 24-501 partner): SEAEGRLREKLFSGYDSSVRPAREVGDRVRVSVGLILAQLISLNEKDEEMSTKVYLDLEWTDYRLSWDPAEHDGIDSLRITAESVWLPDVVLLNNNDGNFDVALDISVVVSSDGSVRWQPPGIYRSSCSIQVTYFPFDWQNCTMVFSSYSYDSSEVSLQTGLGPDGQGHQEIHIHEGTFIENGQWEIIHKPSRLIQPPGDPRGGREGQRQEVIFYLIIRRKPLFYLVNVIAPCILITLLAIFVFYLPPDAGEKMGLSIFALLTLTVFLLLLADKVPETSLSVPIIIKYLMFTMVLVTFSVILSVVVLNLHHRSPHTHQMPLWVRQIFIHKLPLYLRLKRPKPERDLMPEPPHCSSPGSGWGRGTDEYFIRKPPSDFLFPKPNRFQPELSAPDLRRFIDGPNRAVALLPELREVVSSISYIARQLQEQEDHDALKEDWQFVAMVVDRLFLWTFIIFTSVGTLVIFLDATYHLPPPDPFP
T4 sequence (P07510 23-517): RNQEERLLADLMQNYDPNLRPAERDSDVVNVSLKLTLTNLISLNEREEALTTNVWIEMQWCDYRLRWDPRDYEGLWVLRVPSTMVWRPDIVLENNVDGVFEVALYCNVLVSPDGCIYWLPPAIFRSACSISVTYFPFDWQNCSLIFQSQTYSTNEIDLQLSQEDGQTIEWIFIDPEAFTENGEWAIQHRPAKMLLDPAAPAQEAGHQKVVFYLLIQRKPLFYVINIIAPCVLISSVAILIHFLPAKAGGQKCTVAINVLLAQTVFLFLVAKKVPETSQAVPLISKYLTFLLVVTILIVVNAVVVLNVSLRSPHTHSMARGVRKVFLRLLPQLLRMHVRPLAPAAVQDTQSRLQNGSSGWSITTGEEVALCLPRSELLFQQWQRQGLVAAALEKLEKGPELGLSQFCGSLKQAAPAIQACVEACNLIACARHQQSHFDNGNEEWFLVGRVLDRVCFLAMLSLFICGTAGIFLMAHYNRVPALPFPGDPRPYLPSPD
T4 sequence (Q07001 22-517): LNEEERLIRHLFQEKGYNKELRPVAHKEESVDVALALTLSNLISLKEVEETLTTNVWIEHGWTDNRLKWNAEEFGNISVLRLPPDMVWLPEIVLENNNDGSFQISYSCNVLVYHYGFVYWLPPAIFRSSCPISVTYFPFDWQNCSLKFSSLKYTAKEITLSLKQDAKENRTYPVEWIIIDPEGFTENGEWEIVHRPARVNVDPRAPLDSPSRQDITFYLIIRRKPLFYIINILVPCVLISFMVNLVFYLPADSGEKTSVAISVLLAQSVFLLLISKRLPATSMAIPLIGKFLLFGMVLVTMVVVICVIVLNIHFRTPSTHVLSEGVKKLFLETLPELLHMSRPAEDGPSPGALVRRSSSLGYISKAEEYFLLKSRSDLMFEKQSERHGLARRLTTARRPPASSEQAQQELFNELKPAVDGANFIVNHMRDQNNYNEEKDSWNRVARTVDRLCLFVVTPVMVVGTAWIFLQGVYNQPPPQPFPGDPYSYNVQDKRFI
T2 sequence (P09483 31-630): as the sequence (P09483 31-630) above
T2 sequence (P12392 21-495): as the sequence (P12392 21-495) above

Consider `Clc1ccc(C2CC3CCC2N3)cn1` (centres unmarked) [Compound 1, epibatidine], for which, in [1], the “nicotinic receptor agonist activity (time-bioactivity profile of HPLC fractions)” value is “active in all cell lines to varying degrees; also recorded: greatest activity in the sample regardless of cell line examined”.
`CC(=O)N[C@H]1CCCN2CCCC[C@@H]12` [Compound 2, epiquinamide, reference compound]: the “nicotinic receptor agonist activity (time-bioactivity profile of HPLC fractions)” value in [1] was “artifact due to a cross-contamination from 1”. Also, the “nicotinic-agonist activity of isolated fraction” value in assay [2] (cells expressing α3 and β4 subunits, fractions of E. anthonyi alkaloid extract) is “artifactual activity from cross contamination with epibatidine”.
For the compound `CN1C2CCC1C(c1ccc(Cl)nc1)C2` (centres unmarked) [Compound 3, N-methylepibatidine], the “nicotinic receptor agonist activity (time-bioactivity profile of HPLC fractions)” value in assay [1] was “responsible for the leading edge of the epibatidine activity; also recorded: significant bioactivity”. In assay [3], the “potency relative to epibatidine” value is given as “essentially equipotent with epibatidine”.
On to `Clc1ccc2c(n1)O[C@@]13CC[C@@H]1NC[C@@H]23` [Compound 4, Phantasmidine], for which the “subtype selectivity relative to 1” value in assay [1] (across several cell lines expressing different nicotinic-receptor subtypes) was “altered subtype selectivity relative to 1”. Also, in [1], the “nicotinic receptor agonist activity (time-bioactivity profile of HPLC fractions)” value was “significant bioactivity; also recorded: nicotinic agonist”. Besides, the “relative activity compared to 1 (height and area of activity peaks)” value was “higher relative activities” in assay [4]; “less activity” in assay [5]; “higher relative activities” in [6]; “less activity” in assay [7]; “higher relative activities” in [8]; “less activity” in assay [9]. The “relative activity compared to 1 (height and area of activity peaks)” value in assay [2] (KXα3β4R2 cells) is on record as “higher relative activities”.
